Experimental findings from article PMC8626775, “Anti-schistosomal activities of quinoxaline-containing compounds: From hit identification to lead optimisation” (European Journal of Medicinal Chemistry, 2021) are described below.

Data set [1] relates to Juvenile S. mansoni worms. The data set can be described thus: S. mansoni juvenile worm screen (motility score, propidium iodide uptake), 72 h. It is filed as cell-based, Schistosoma mansoni. Conditions: for EC50: 3 week juvenile S. mansoni; for PI pos: juvenile worms, Fig. S4. The text has this: Mice (Mus musculus HsdOLa:TO - Tuck Ordinary; Envigo, UK) were used for the mammalian-specific propagation of the S. mansoni life cycle. Experimental animals were infected with 4000 or 180 S. mansoni cercariae/mouse and perfused three- or seven-weeks post-infection to obtain S. mansoni juvenile or adult worms, respectively. Preparation steps following perfusion have been described previously. Briefly, the parasite material was washed three times with pre-warmed adult worm media (DMEM (Gibco, Paisley, UK) supplemented with 10% (v/v) Fetal Calf Serum (FCS, Gibco, Paisley, UK), 1% (v/v) L-glutamine (Gibco, Paisley, UK) and an antibiotic mixture (150 Units/ml penicillin and 150 μg/ml streptomycin; Gibco, UK)) to remove residual host contamination and incubated in a humidified environment containing 5% CO2 at 37 °C for at least 1 h.
Juvenile worms were distributed in a 96-well tissue culture plate (n = 20–25 individuals/well) containing 200 μl/well. Compounds were added to each treatment well at a concentration range of 10–0.156 μM. Negative (1.25% DMSO) and positive (15 μM PZQ and 15 μM AUR in 1.25% DMSO) controls were also included in each drug screen. Treated juvenile worms were incubated for 72 h in a humidified environment containing 5% CO2 at 37 °C. Compound-induced phenotype and motility effects were quantified using an adapted version of the WHO-TDR scoring system (in summary: 0 = dead, 1 = movement of the suckers only and slight contraction of the body, 2 = movement at the anterior and posterior regions only, 3 = full body movement but sluggish and 4 = normal movement). Additionally, differential uptake of propidium iodide (PI, P1304MP, Sigma-Aldrich, UK) was used to quantify worm viability as previously described. In brief, after 15 min incubation with 2 μg/ml PI, the parasite cultures were imaged under both bright-field and fluorescent settings (PI detection, 562 and 624 excitation and emission wavelengths, respectively) using an ImageXpressXL high content imager (Molecular Devices, UK). Enumeration of PI positive and negative juvenile worms was manually performed across all parasites within the well and the percentage of PI positive parasite was calculated per well.

The nature of another data set: in vitro. Conditions: human, TK6 lymphoblastoid cells. As for the experimental part: The in vitro micronucleus (MN) assay was employed for the assessment of chromosome damage. Human, p53 competent, lymphoblastoid TK6 cells (Cat. No. 95111735) were used in this study and obtained from the European Collection of Authenticated Cell Cultures (ECACC)). RPMI 1640 (Gibco, Paisley, UK) culture media supplemented with 1% penicillin/streptomycin (100 U/ml Penicillin and 100 μg/ml Streptomycin), 10% heat inactivated horse serum (Gibco, Paisley, UK), 1% L-glutamine (Gibco, Paisley, UK) and hygromycine-B was used for TK6 cell culture. Cells were incubated at 37 °C in a humidified atmosphere of 5% (v/v) CO2.

Another data set concerns HepG2 cells. As to the kind of experiment: HepG2 MTT cytotoxicity assay. The method, boiled down:
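HepG2 cells seeded at 2 × 10^4 cells/well, cultured at 37 °C in 5% CO2. Viability by MTT, formazan absorbance at 570 nm. The cytotoxicity value served for computing compound selectivity index.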
For orientation: Tetrazolium assays rely on reduction of a dye to a coloured formazan, in cell work by metabolically active cells.

The test system of the next data set is S. mansoni adult worms. The data set can be described thus: In vitro laid egg (IVLE) production by S. mansoni adult worm pairs, 72 h. Conditions: 0.0024–10 μM. It is filed as cell-based, Schistosoma mansoni. As to the method:
For the evaluation of anti-schistosomal activity on the adult stage of the parasite, 7-wk old worms were transferred into 48 well tissue culture plates (1–3 worm pairs/well, in duplicate). […] DMSO (0.5%) and praziquantel (10 μM in 0.5% DMSO) were also included as negative and positive control treatments. Treated adult worms were incubated for 72 h in a humidified environment containing 5% CO2 at 37 °C. Parasite motility after compound treatment was assessed by a digital image processing-based system (WormassayGP2), modified after Wormassay. Following compound-parasite co-incubation, eggs were collected, fixed in formalin (10% v/v formaldehyde) and enumerated aiming to collect further information on any compound-induced effects on parasite fecundity and IVLE production.

Consider `O=[N+]([O-])c1ccc2nc(Nc3ccc(Cl)c(Cl)c3)c(Nc3ccc(Cl)c(Cl)c3)nc2c1` [Compound 22, N^2, N^3-bis(3,4-dichlorophenyl)-6-nitroquinoxaline-2,3-diamine], for which the EC50 in data set [1] (72 h) was 201 nM; in data set [1] (Schistosoma mansoni, 72 h) it was 200 nM. In addition, the “Concentration down to which parasite death of juvenile worms was induced” value in data set [1] (72 h, supported by propidium iodide staining) was 1.25 µM. The PI pos is reported as 0% in data set [1] (0.156 µM); 10% in data set [1] (0.312 µM); 20% in data set [1] (0.625 µM); 100% in data set [1] (1.25 µM); 100% in data set [1] (2.50 µM); 100% in data set [1] (5 µM). In data set [1] (10 µM), this compound yielded a PI pos of 100%. Further, the midpoint of cytotoxicity in the data set “in vitro”, the CC50 at 24 h, lay at 9360 nM.

For the compound `O=[N+]([O-])c1ccc2nc(Nc3cc(C(F)(F)F)ccc3F)c(Nc3cc(C(F)(F)F)ccc3F)nc2c1` [Compound 33, N2, N3-bis(2-fluoro-5-(trifluoromethyl)phenyl)-6-nitroquinoxaline-2,3-diamine], the “Toxicity on HepG2 in words” value with HepG2 cells (24 h) was “low toxicity”. In addition, the “Selectivity Index (SI) Adult worms” value with HepG2 cells (HepG2 CC50 versus adult worm EC50) is given as 17.87. In addition, the “Selectivity Index (SI) Somula” value with HepG2 cells (HepG2 CC50 versus schistosomula EC50) was 0.66. Also, the “Effect on IVLE production compared with PZQ” value in the data set with S. mansoni adult worms is on record as “more potent than PZQ”.

What is called EC50 is the concentration giving half of the maximal effect. Low readings indicate an effect from little substance, high ones a need for much substance. As a reminder, the CC50 is the concentration that lowers cell viability or growth by half.
